Measured values: ChEMBL document CHEMBL1857833, “Screening and optimization of specific chemical series against human African Trypanosomiasis (HAT)”
Converted amounts (≈) assume the structure as drawn. “And” between values parts separate entries of the source, which are not always exact repeats. Equal values may be shown once.

Tested on: Trypanosoma brucei
Test: DNDI: Inhibition of Human African Trypanosomiasis, SBRI 427, in vitro
Format: functional, organism-based
[1] = Trypanosoma brucei, SBRI 427, read-out: IC50

Row | SMILES | IC50 [1] [µg/mL] | IC50
1 | Cc1cc(C)cc(Oc2nc(C)ccc2/C(=N/O)N2c3ccccc3CCC2C)c1 (centres undefined) | 1.6 (≈ 3.98 µM) | –
2 | NCCc1cn(Cc2coc(-c3ccc(Cl)cc3Cl)n2)cn1 | 4.34 (≈ 12.9 µM) | –
3 | C[C@@H]1C(NCc2coc(-c3cccc4ccccc34)n2)C[C@H]2C[C@@H]1C2(C)C (some centres undefined) | 0.94 (≈ 2.61 µM) | –
4 | CC1CCc2ccccc2N1/C(=N\O)c1cccnc1Oc1ccc(-n2cncn2)cc1 (centres undefined) | 0.73 (≈ 1.71 µM) | –
5 | COc1cccc(-c2nc(CNC34C[C@H]5C[C@@H](C3)C[C@@H](C4)C5)co2)c1 | > 5 | –
6 | Cc1ccc(/C(=N/O)NC2CCCC2)c(Oc2ccc3oc4ccccc4c3c2)n1 | 0.67 (≈ 1.67 µM) | –
7 | Cc1ccc(/C(=N/O)NC2CCC2)c(Oc2ccc3oc4ccccc4c3c2)n1 | 0.39 (≈ 1.01 µM) | –
8 | C[C@H]1C(NCc2coc(-c3cccc4ccccc34)n2)C[C@@H]2C[C@H]1C2(C)C (some centres undefined) | 0.9 (≈ 2.5 µM) | –
9 | CC1CCC(C)N1/C(=N\O)c1cccnc1OCC(C)(C)C (centres undefined) | 1.25 (≈ 4.09 µM) | –
10 | O/N=C(/c1cccnc1Oc1cccc(C(F)(F)F)c1)N1CCN(C2CCCC2)CC1 | 2.33 (≈ 5.36 µM) | –
11 | CCOc1cccc(-c2nc(CNCCC3CCCN3C)co2)c1 (centres undefined) | – | 1.78 µg/mL and 4.05 µg/mL
12 | CCC1CCCCN1Cc1coc(-c2cccc3ccccc23)n1 (centres undefined) | 2.13 (≈ 6.65 µM) | 1.83 µg/mL (≈ 5.71 µM)
13 | O/N=C(\NC1CCC1)c1cccnc1Oc1ccccc1OCc1ccccc1 | 1.39 (≈ 3.57 µM) | –
14 | CC(C)N/C(=N\O)c1cccnc1OCC(C)(C)C | 0.9 (≈ 3.39 µM) | –
15 | O/N=C(\NC1CCc2ccccc21)c1cccnc1Oc1c(F)cccc1F (centres undefined) | 1.7 (≈ 4.46 µM) | –
16 | Cc1ccc(/C(=N/O)NCc2cc(F)cc(F)c2)c(Oc2cc(Cl)ccc2Cl)n1 | 2.52 (≈ 5.75 µM) | –
17 | COc1ccc(-c2nc(CNC[C@@H]3CC[C@H]4C[C@@H]3C4(C)C)co2)cc1 | 1.31 (≈ 3.85 µM) | –
18 | Cc1ccc(-c2nc(CNC34C[C@H]5C[C@@H](C3)C[C@@H](C4)C5)co2)cc1 | 3.86 (≈ 12 µM) | –
19 | O/N=C(\NC1CCC1)c1ccc(Oc2c(F)c(F)cc(F)c2F)nc1 | 2.58 (≈ 7.26 µM) | –
20 | CCOc1ccccc1CN/C(=N\O)c1cccnc1Oc1cc(Cl)ccc1Cl | 0.66 (≈ 1.53 µM) | –

Row | SMILES | IC50 [1] [µg/mL] | IC50
21 | O/N=C(\NCc1cccnc1)c1ccc(Oc2ccc3oc4ccccc4c3c2)nc1 | 3.79 (≈ 9.23 µM) | –
22 | Cc1ccc(/C(=N/O)NC2CCCCC2)c(Oc2ccc3ccccc3c2)n1 | 0.37 (≈ 0.985 µM) | –
23 | CC(C)COc1ncccc1/C(=N/O)NC1CCC(C)CC1 (centres undefined) | 2.25 (≈ 7.37 µM) | –
24 | Clc1ccc(-c2nc(CNCCCn3ccnc3)co2)c(Cl)c1 | 2.02 (≈ 5.75 µM) | –
25 | O/N=C(\Nc1ccccc1)c1cccnc1OCc1ccccc1 | 1.26 (≈ 3.95 µM) | –
26 | Cc1ccc(/C(=N/O)NC2CC(C)CC(C)(C)C2)c(OCC(C)C)n1 (centres undefined) | 1.77 (≈ 5.09 µM) | –
27 | CC1CCc2ccccc2N1/C(=N\O)c1cccnc1OCC(C)(C)C (centres undefined) | 0.66 (≈ 1.87 µM) | –
28 | O/N=C(/c1cccnc1Oc1ccc(F)cc1Cl)N1CCCc2ccccc21 | 0.54 (≈ 1.36 µM) | –
29 | CC1(C)[C@H]2CC[C@@H](CNCc3coc(-c4ccc(F)cc4)n3)[C@@H]1C2 | > 5 | –
30 | O/N=C(\NC1CCCC1)c1ccc(Oc2c(F)c(F)cc(F)c2F)nc1 | 3.8 (≈ 10.3 µM) | –
31 | C[C@H]1C(NCc2coc(-c3ccc(O)cc3)n2)C[C@@H]2C[C@H]1C2(C)C (some centres undefined) | 1.36 (≈ 4.17 µM) | –
32 | Cc1ccc(Oc2ccc(/C(=N/O)NC3CCCC3)cn2)c(C)c1 | 21.8 (≈ 66.9 µM) | –
33 | CC(C)(C)c1ccc(-c2nc(CNCC3CC3)co2)cc1 | 1.22 (≈ 4.29 µM) | 1.69 µg/mL (≈ 5.94 µM)
34 | CC(C)COc1ncccc1/C(=N/O)NC1CCC1 | 1.41 (≈ 5.35 µM) | –
35 | Cc1cc(C)cc(Oc2ccc(/C(=N/O)NC3CCC(C)CC3)cn2)c1 (centres undefined) | 2.93 (≈ 8.29 µM) | –
36 | CCN(CC)CCCC(C)NCc1coc(-c2ccccc2Cl)n1 (centres undefined) | > 5 | –
37 | CN(Cc1coc(-c2cccc3ccccc23)n1)C1CCCCC1 | 2.01 (≈ 6.27 µM) | 1.3 µg/mL (≈ 4.06 µM)
38 | Cc1ccc(/C(=N/O)NCc2ccccc2F)c(Oc2cc(Cl)ccc2Cl)n1 | > 5 | –
39 | Cc1ccc(/C(=N/O)N2CCCc3ccccc32)c(Oc2cccc(F)c2)n1 | 2.54 (≈ 6.73 µM) | –

Now from value to compound:

Row | IC50 [1] [µg/mL] | IC50 | SMILES
40 | 1.97 (≈ 5.54 µM) | – | COc1cccc(Oc2ccc(/C(=N/O)NC3CCC(C)CC3)cn2)c1 (centres undefined)
41 | 1.28 (≈ 3.43 µM) | – | Cc1ccc(Oc2ncccc2/C(=N/O)NCc2ccccc2)c2c1CCC2
42 | 1.77 (≈ 5.18 µM) | – | COCCN/C(=N\O)c1cccnc1Oc1ccc(C)c2c1CCC2
43 | > 5 | – | COCC(C)N/C(=N\O)c1ccc(Oc2ccc3ccccc3c2)nc1 (centres undefined)
44 | 1.26 (≈ 3.56 µM) | – | CCC(CC)N/C(=N\O)c1ccc(Oc2cccc3c2CCCC3)nc1
45 | 1.06 (≈ 2.84 µM) | – | O/N=C(\NC1CCC1)c1ccc(Oc2ccc3oc4ccccc4c3c2)nc1
46 | 1.94 (≈ 5.92 µM) | – | Cc1cc(C)cc(CN/C(=N\O)c2cccnc2OCC(C)C)c1
47 | > 5 | – | CC(C)c1ccc(Oc2ncccc2/C(=N/O)NCc2c(F)cccc2F)cc1
48 | 0.45 (≈ 1.3 µM) | – | COCC(C)N/C(=N\O)c1ccnc(Oc2ccc(SC)cc2)c1 (centres undefined)
49 | > 5 | – | CCC(CC)N/C(=N\O)c1ccc(C)nc1Oc1ccc(F)c(Cl)c1
50 | 3.98 (≈ 11.1 µM) | – | O/N=C(\NCC1CCCCC1)c1ccnc(Oc2ccc(Cl)cc2)c1
51 | 0.6 (≈ 1.7 µM) | – | O/N=C(\NC1CCC1)c1ccnc(Oc2cc(Cl)ccc2Cl)c1
52 | 36.6 (≈ 102 µM) | – | O/N=C(\NC1CC1)c1ccc(Oc2ccc3oc4ccccc4c3c2)nc1
53 | 3.57 (≈ 9.88 µM) | – | Cc1ccccc1CN/C(=N\O)c1cccnc1Oc1cccc(C)c1C
54 | 1.44 (≈ 3.66 µM) | – | CCOc1ccccc1CN/C(=N\O)c1cccnc1Oc1ccc(OC)cc1
55 | 40.8 (≈ 126 µM) | – | CCc1ccc(Oc2ccc(/C(=N/O)NC3CCCC3)cn2)cc1
56 | > 5 | – | O/N=C(\NC1CCC1)c1ccc(Oc2ccc3ccccc3c2)nc1
57 | 2.2 (≈ 6.29 µM) | – | O/N=C(\NC1CCCC1)c1ccnc(Oc2ccc(F)c(Cl)c2)c1
58 | 3.01 (≈ 8.62 µM) | – | COc1ccc(Oc2ncccc2/C(=N/O)NCc2ccccc2)cc1
59 | > 5 | – | CC1CCC(N/C(=N\O)c2ccnc(Oc3cccc4cccnc34)c2)CC1 (centres undefined)
60 | > 5 | – | Cc1ccc(Oc2cc(/C(=N/O)N3CCCCCC3)ccn2)c(C)c1

Row | IC50 [1] [µg/mL] | IC50 | SMILES
61 | 1.63 (≈ 4.88 µM) | – | CCC(CC)N/C(=N\O)c1ccc(Oc2ccc(Cl)cc2)nc1
62 | 2.64 (≈ 7.28 µM) | – | CC(C)c1cccc(Oc2ccc(/C(=N/O)NCc3ccncc3)cn2)c1
63 | 1.61 (≈ 4.92 µM) | – | CCC(CC)N/C(=N\O)c1ccc(Oc2cc(C)cc(C)c2)nc1
64 | 3.73 (≈ 10.9 µM) | – | COc1ccc(Oc2cc(/C(=N/O)NC3CCCCC3)ccn2)cc1
65 | 2.19 (≈ 6.9 µM) | – | CC(C)(C)CN/C(=N\O)c1ccnc(Oc2cccc(F)c2)c1
66 | 1.56 (≈ 4.71 µM) | – | CCC(CC)N/C(=N\O)c1ccc(C)nc1Oc1cccc(F)c1
67 | 2.32 (≈ 6.68 µM) | – | CC1CCCN1/C(=N\O)c1ccc(Oc2ccc3ccccc3c2)nc1 (centres undefined)
68 | 0.32 (≈ 0.977 µM) | – | Cc1cccc(Oc2nc(C)ccc2/C(=N/O)NCC(C)(C)C)c1
69 | 1.67 (≈ 4.26 µM) | – | Cc1ccc(CN/C(=N\O)c2cccnc2Oc2cc(Cl)ccc2Cl)o1
70 | 0.37 (≈ 1.19 µM) | – | CCc1ccc(Oc2ccc(/C(=N/O)NCC3CC3)cn2)cc1
71 | 2.27 (≈ 7.2 µM) | – | O/N=C(\NC1CCCC1)c1ccnc(Oc2cccc(F)c2)c1
72 | 1.32 (≈ 4.16 µM) | – | CCC(CC)N/C(=N\O)c1cccnc1Oc1ccc(F)cc1
73 | 1.6 (≈ 4.17 µM) | – | CSc1ccc(Oc2ccc(/C(=N/O)NCc3ccccc3F)cn2)cc1
74 | 1.67 (≈ 5.33 µM) | – | Cc1cccc(Oc2nc(C)ccc2/C(=N/O)NCC(C)C)c1
75 | 1.43 (≈ 3.65 µM) | – | O/N=C(\NCC1CCCCC1)c1ccc(Oc2ccc(-n3ccnc3)cc2)nc1
76 | 1.23 (≈ 3.6 µM) | – | COc1cccc(Oc2ccc(/C(=N/O)NC3CCCCC3)cn2)c1
77 | 1.42 (≈ 3.95 µM) | – | CC1CCC(N/C(=N\O)c2ccc(Oc3ccc(Cl)cc3)nc2)CC1 (centres undefined)
78 | 2.1 (≈ 5.38 µM) | – | C=CCc1ccc(Oc2ccc(/C(=N/O)NCc3ccncc3)cn2)c(OC)c1
79 | > 5 | – | COc1ccc(Oc2cc(/C(=N/O)NCC(C)C)ccn2)cc1
80 | 1.58 (≈ 4.45 µM) | – | O/N=C(\NCc1c(F)cccc1F)c1cccnc1Oc1ccccc1
81 | 0.59 (≈ 1.79 µM) | – | CCC(CC)N/C(=N\O)c1cccnc1Oc1ccccc1OC
